The test system of one assay is B16-F10. As to the kind of experiment: Ability to reduce the invasiveness of tumor in B16F10 cells. Format: functional, cell-based. The conditions noted are these: Mus musculus.
Assay [1] deals with T1, Protein tyrosine phosphatase type IVA 3 (Homo sapiens, UniProt O75365). As to the kind of experiment: Inhibition of human recombinant PRL-3 up to 50 uM.
Assay [2] addresses T1, Protein tyrosine phosphatase type IVA 3. As to the kind of experiment: Inhibition of human recombinant PRL-3.

Activity calls are given as the source filed them. The calls are words filed in the database; no cut-off is given here.

Experimental findings from ChEMBL document CHEMBL1148664, “Synthesis and biological evaluation of rhodanine derivatives as PRL-3 inhibitors” (Bioorg Med Chem Lett, 2006) are described below.

As usually defined, the IC50 is the concentration needed to halve the response being measured.

T1 sequence (O75365 whole entry): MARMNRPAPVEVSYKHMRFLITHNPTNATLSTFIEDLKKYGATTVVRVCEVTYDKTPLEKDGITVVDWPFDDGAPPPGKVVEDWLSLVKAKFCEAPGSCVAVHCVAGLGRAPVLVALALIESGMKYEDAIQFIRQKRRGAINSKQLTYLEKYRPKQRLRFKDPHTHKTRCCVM

As to `O=C1NC(=S)S/C1=C\c1cc2ccccc2cc1OCc1c(F)cccc1Cl`, in the assay on B16-F10, the outcome was Active.

Take `CS(=O)(=O)Oc1ccc(Br)cc1/C=C1\SC(=S)NC1=O`: the inhibition result in assay [1] was “inactive”.

For `CN1C(=O)/C(=C/c2cc(Br)ccc2OCc2ccccc2)SC1=S`, the inhibition entry in assay [1] is “inactive”.

As for `O=C1NC(=S)S/C1=C\c1ccccc1OCc1ccccc1`, the inhibition entry in assay [1] is “inactive”.

As to `O=C1NC(=S)S/C1=C\c1cc(Br)ccc1OCc1ccccc1Br`, the outcome in the assay on B16-F10 was Active.

Consider `O=Cc1cc(Br)ccc1O`, for which the inhibition entry in assay [1] is “inactive”.

In the case of `O=C1NC(=O)/C(=C/c2cc(Br)ccc2OCc2ccccc2)S1`, in assay [1], the inhibition result is “inactive”.

Consider `O=C1NC(=S)S/C1=C\c1cc(Br)ccc1OCc1cccnc1`, for which the inhibition result in assay [1] was “inactive”.

Regarding `N=C(N)c1ccc(OCCCCCOc2ccc(C(=N)N)cc2)cc1` [PENTAMIDINE], in assay [2], the IC50 turned out to be 53.6 µM.

On to `O=C1NC(=S)S/C1=C\c1cc(Br)ccc1O`, for which, in assay [2], the IC50 was 9.5 µM.
